Results as given in patent US11840499B2, “Biobased-fatty acid arginates” (priority 2020, dated 2023).
Where two headings read alike, the source gives them in different places.

Legend:
[1] = test system: Gram-positive Listeria innocua (ATCC 33090); test: Antimicrobial activity (MIC/MBC) against Listeria innocua; format: cell-based
Description: (§1) Antimicrobial activity studies were performed using standard methods. For all compounds, at least 3 independent replicates of quadruplicate tests were conducted. The minimum inhibitory concentration (MIC) was determined as the lowest test compound concentration for which no color change (no active growth) occurred. Minimum bactericidal concentration (MBC) was determined by spreading 100 μl from each growth-negative well onto TSA and incubating at 37° C. for 24 h. MBC was the […] where no viable growth occurred.

[2] = test system: Gram-negative Escherichia coli (ATCC 700728); test: microbe, parasite or virus in culture; format: cell-based; conditions: for MIC / MBC: E. coli; for MIC: lowest concentration with no color change (no active growth); for MBC: no viable growth on TSA, 37° C., 24 h
Description: as §1

[3] = Surfactant properties: surface tension by drop image method, CMC; format: physicochemical; conditions: aqueous solution
Description: Samples of the analyte were weighed and dissolved in distilled water to make a 10 mM stock solution. The stock solution was then subsequently diluted to make 5 mM, 1 mM, 0.5 mM, 0.25 mM, 0.125 mM, and 0.0625 mM solutions. The series of solutions were used to measure the surface tension using a drop image method with a surface tension instrument. Measurement for each sample was done in triplicate and the average value was calculated. Critical micelle concentration (CMC) is the concentration above which micelles form in the surfactant solution.

[4] = L. innocua, lowest concentration with no color change (no active growth)
[5] = L. innocua, no viable growth on TSA, 37° C., 24 h
[6] = Escherichia coli, ATCC700728, read-out: MIC
[7] = Escherichia coli, ATCC700728, read-out: MBC
[8] = Listeria innocua, ATCC33090, 24 h

CCCCCCCC/C=C\CCCCCCCC(=O)N[C@@H](CCCNC(=N)N)C(=O)OCC [Oleic arginate]
MIC [1, 4]: 3.6 ppm
MBC [1, 5]: 3.6 ppm
MIC [2]: 116.4 ppm
MBC [2]: 116.4 ppm
antimicrobial activity (in words) ([2]; Escherichia coli (ATCC 700728)): weak activity

CCCCCCCCCCCC(=O)N[C@@H](CCCNC(=N)N)C(=O)OCC.Cl [Ethyl lauroyl arginate, ethyl-N^α-lauroyl-L-arginate HCl, reference compound]
MIC ([1]; Listeria innocua, ATCC33090, L. innocua, lowest concentration with no color change (no active growth), read-out: MIC): 7.3 µg/mL
MBC ([1]; Listeria innocua, ATCC33090, L. innocua, no viable growth on TSA, 37° C., 24 h, read-out: MBC): 14.5 µg/mL
MIC [2, 6]: 7.3 µg/mL
MBC [2, 7]: 7.3 µg/mL

CCOC(=O)[C@@H](N)CCCNC(=N)N.Cl.Cl [L-arginine ethyl ester dihydrochloride]
MIC ([1]; Listeria innocua, ATCC33090): > 233 µg/mL
MBC [1, 8]: > 233 µg/mL
MIC [2, 6]: > 233 µg/mL
MBC [2, 7]: > 233 µg/mL

Soy thymol arginate
MIC [1, 4]: 3.6 ppm
MBC [1, 5]: 14.5 ppm
MIC [2]: >232.7 ppm
MBC [2]: >232.7 ppm

Isooleic arginate
MIC [1, 4]: 1.8 ppm
MBC [1, 5]: 1.8 ppm
MIC [2]: >232.7 ppm
MBC [2]: >232.7 ppm

CCCCCCCCCCCCCCCCCC(=O)N[C@@H](CCCNC(=N)N)C(=O)OCC [Stearic arginate]
MIC [1, 4]: 14.5 ppm
MBC [1, 5]: 29.1 ppm
MIC [2]: >232.7 ppm
MBC [2]: >232.7 ppm

CCCCCCCCCCCCOS(=O)(=O)[O-].[Na+] [SDS]
critical micelle concentration (CMC), compared to LAE [3]: much higher
surface tension level reached with increasing surfactant concentration ([3]; 0.0625-10 mM): 38 mN/m

Isostearic arginate
MIC [1, 4]: 3.6 ppm
MBC [1, 5]: 7.3 ppm
MIC [2]: >232.7 ppm
MBC [2]: >232.7 ppm

N=C(N)NCCC[C@H](N)C(=O)O [L-arginine (commercial), L-arginine]
MIC [1, 4]: >232.7 ppm
MBC [1, 5]: >232.7 ppm
MIC ([1]; Listeria innocua, ATCC33090): > 233 µg/mL
MBC [1, 8]: > 233 µg/mL
MIC [2, 6]: > 233 µg/mL
MBC [2, 7]: > 233 µg/mL

Oleic phenol arginate
MIC [1, 4]: 1.2 ppm
MBC [1, 5]: 5.0 ppm
MIC [2]: >232.7 ppm
MBC [2]: >232.7 ppm

CCCCCCCC/C=C\CCCCCCCC(=O)O [Oleic acid]
MIC [1, 4]: >232.7 ppm
MBC [1, 5]: >232.7 ppm
MIC ([1]; Listeria innocua, ATCC33090): > 233 µg/mL
MBC [1, 8]: > 233 µg/mL
MIC [2, 6]: > 233 µg/mL
MBC [2, 7]: > 233 µg/mL

Isooleic acid
MIC [1, 4]: >232.7 ppm
MBC [1, 5]: >232.7 ppm
MIC [2]: >232.7 ppm
MBC [2]: >232.7 ppm
